Measurements published in BindingDB's records for PubMed 11160654 (Kitasato University, 2001).

Molecular target: Glutamate receptor 3 (Rattus norvegicus, UniProt P19492)
Sequence (P19492 whole entry): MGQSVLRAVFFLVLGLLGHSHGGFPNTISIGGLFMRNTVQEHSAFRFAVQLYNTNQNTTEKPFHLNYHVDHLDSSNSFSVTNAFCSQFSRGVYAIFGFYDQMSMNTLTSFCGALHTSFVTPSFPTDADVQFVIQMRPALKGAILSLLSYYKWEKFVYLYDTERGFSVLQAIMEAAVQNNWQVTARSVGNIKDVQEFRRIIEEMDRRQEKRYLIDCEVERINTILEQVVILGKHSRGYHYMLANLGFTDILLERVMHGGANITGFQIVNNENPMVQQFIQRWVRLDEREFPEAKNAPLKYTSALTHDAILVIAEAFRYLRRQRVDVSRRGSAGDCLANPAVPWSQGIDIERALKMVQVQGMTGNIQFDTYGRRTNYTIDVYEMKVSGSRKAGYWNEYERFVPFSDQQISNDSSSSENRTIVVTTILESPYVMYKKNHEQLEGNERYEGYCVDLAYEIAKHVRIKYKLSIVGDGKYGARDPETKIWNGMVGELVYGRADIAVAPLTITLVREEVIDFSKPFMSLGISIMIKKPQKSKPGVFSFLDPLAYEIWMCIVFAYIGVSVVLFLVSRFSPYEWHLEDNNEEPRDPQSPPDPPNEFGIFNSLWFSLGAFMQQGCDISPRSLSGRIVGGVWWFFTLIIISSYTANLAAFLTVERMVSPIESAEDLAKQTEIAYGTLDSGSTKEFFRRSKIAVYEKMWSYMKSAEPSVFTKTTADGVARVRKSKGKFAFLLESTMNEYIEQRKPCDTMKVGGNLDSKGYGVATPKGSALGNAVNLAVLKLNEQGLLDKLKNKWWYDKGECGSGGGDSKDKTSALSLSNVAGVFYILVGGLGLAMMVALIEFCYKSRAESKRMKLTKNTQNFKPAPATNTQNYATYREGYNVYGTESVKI

In the case of `CN[C@H](CC(=O)O)C(=O)O` [NMDA], the Ki is reported as 3.9 µM.
